# Measured values reported in ChEMBL document CHEMBL1201862, “PubChem BioAssay data set” (2004).
#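 Exposure lasted 48 hours, with cells grown in 96-well plates and compounds tested at five concentrations. Abbreviation: GI50, concentration required for 50% inhibition of growth.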 Calls of active or inactive are those of the source. Rule as the data show it: active = GI50 up to about 1.1 µM and inactive = higher.
# Experiments:
# Test in all cases: DTP human tumour cell line panel, 48 h
# A498 = test system: A498
# A549 = test system: A549
# BT-549 = test system: BT-549
# CAKI-1 = test system: CAKI-1
# CCRF-CEM = test system: CCRF-CEM
# COLO 205 = test system: COLO 205
# DU-145 = test system: DU-145
# EKVX = test system: EKVX
# HCC 2998 = test system: HCC 2998
# HCT-116 = test system: HCT-116
# HCT-15 = test system: HCT-15
# HL-60 = test system: HL-60
# HOP-62 = test system: HOP-62
# HOP-92 = test system: HOP-92
# HT-29 = test system: HT-29
# Hs-578T = test system: Hs-578T
# IGROV-1 = test system: IGROV-1
# K562 = test system: K562
# LOX IMVI = test system: LOX IMVI
# M14 = test system: M14
# MCF7 = test system: MCF7
# MDA-MB-231 = test system: MDA-MB-231
# MDA-MB-435 = test system: MDA-MB-435
# MDA-N = test system: MDA-N
# MOLT-4 = test system: MOLT-4
# Malme-3M = test system: Malme-3M
# NCI-H226 = test system: NCI-H226
# NCI-H23 = test system: NCI-H23
# NCI-H460 = test system: NCI-H460
# NCI/ADR-RES = test system: NCI/ADR-RES
# OVCAR-3 = test system: OVCAR-3
# OVCAR-4 = test system: OVCAR-4
# OVCAR-5 = test system: OVCAR-5
# OVCAR-8 = test system: OVCAR-8
# PC-3 = test system: PC-3
# RXF 393 = test system: RXF 393
# SF-268 = test system: SF-268
# SF-295 = test system: SF-295
# SF-539 = test system: SF-539
# SK-MEL-28 = test system: SK-MEL-28
# SK-MEL-2 = test system: SK-MEL-2
# SK-MEL-5 = test system: SK-MEL-5
# SK-OV-3 = test system: SK-OV-3
# SN12C = test system: SN12C
# SNB-19 = test system: SNB-19
# SNB-75 = test system: SNB-75
# SR = test system: SR
# SW-620 = test system: SW-620
# T47D = test system: T47D
# TK-10 = test system: TK-10
# U-251 = test system: U-251
# UACC-257 = test system: UACC-257
# UACC-62 = test system: UACC-62
# UO-31 = test system: UO-31
# 786-0 = test system: 786-0
# ACHN = test system: ACHN
# KM12 = test system: KM12
# NCI-H522 = test system: NCI-H522
# RPMI-8226 = test system: RPMI-8226
compound,measurement,setting,value
CO/N=C1/c2sccc2[C@H](NC(=O)C(Cc2ccccc2)NC(=O)OC(C)(C)C)[C@@H]1O (stereo partly specified),GI50,A498,> 100 µM (inactive)
same,GI50,A549,> 100 µM (inactive)
same,GI50,BT-549,> 100 µM (inactive)
same,GI50,CAKI-1,> 100 µM (inactive)
same,GI50,CCRF-CEM,> 100 µM (inactive)
same,GI50,COLO 205,> 100 µM (inactive)
same,GI50,DU-145,> 100 µM (inactive)
same,GI50,EKVX,> 100 µM (inactive)
same,GI50,HCC 2998,> 100 µM (inactive)
same,GI50,HCT-116,> 100 µM (inactive)
same,GI50,HCT-15,> 100 µM
same,GI50,HL-60,85.1 µM (inactive)
same,GI50,HOP-62,> 100 µM (inactive)
same,GI50,HOP-92,> 100 µM (inactive)
same,GI50,HT-29,> 100 µM (inactive)
same,GI50,Hs-578T,> 100 µM (inactive)
same,GI50,IGROV-1,> 100 µM (inactive)
same,GI50,K562,> 100 µM (inactive)
same,GI50,LOX IMVI,> 100 µM (inactive)
same,GI50,M14,> 100 µM (inactive)
same,GI50,MCF7,> 100 µM (inactive)
same,GI50,MDA-MB-231,> 100 µM (inactive)
same,GI50,MDA-MB-435,> 100 µM (inactive)
same,GI50,MDA-N,> 100 µM (inactive)
same,GI50,MOLT-4,93.3 µM (inactive)
same,GI50,Malme-3M,> 100 µM (inactive)
same,GI50,NCI-H226,> 100 µM (inactive)
same,GI50,NCI-H23,> 100 µM (inactive)
same,GI50,NCI-H460,> 100 µM (inactive)
same,GI50,NCI/ADR-RES,> 100 µM (inactive)
same,GI50,OVCAR-3,> 100 µM (inactive)
same,GI50,OVCAR-4,45.6 µM (inactive)
same,GI50,OVCAR-5,> 100 µM (inactive)
same,GI50,OVCAR-8,> 100 µM (inactive)
same,GI50,PC-3,> 100 µM (inactive)
same,GI50,RXF 393,> 100 µM (inactive)
same,GI50,SF-268,> 100 µM (inactive)
same,GI50,SF-295,> 100 µM (inactive)
same,GI50,SF-539,> 100 µM (inactive)
same,GI50,SK-MEL-28,> 100 µM (inactive)
same,GI50,SK-MEL-2,> 100 µM (inactive)
same,GI50,SK-MEL-5,> 100 µM (inactive)
same,GI50,SK-OV-3,> 100 µM (inactive)
same,GI50,SN12C,> 100 µM (inactive)
same,GI50,SNB-19,> 100 µM (inactive)
same,GI50,SNB-75,> 100 µM (inactive)
same,GI50,SR,49.5 µM (inactive)
same,GI50,SW-620,> 100 µM (inactive)
same,GI50,T47D,63.2 µM (inactive)
same,GI50,TK-10,> 100 µM (inactive)
same,GI50,U-251,> 100 µM (inactive)
same,GI50,UACC-257,> 100 µM (inactive)
same,GI50,UACC-62,> 100 µM (inactive)
same,GI50,UO-31,51.4 µM (inactive)
CC12CCC(C1)C(C)(C)C2OC(=O)c1ccccc1N (stereo unspecified),GI50,786-0,16.6 µM (inactive)
same,GI50,A498,15.2 µM (inactive)
same,GI50,A549,14.8 µM (inactive)
same,GI50,ACHN,17.5 µM (inactive)
same,GI50,BT-549,19.1 µM (inactive)
same,GI50,CAKI-1,15.2 µM (inactive)
same,GI50,CCRF-CEM,0.678 µM (active)
same,GI50,COLO 205,15.4 µM (inactive)
same,GI50,DU-145,16.4 µM (inactive)
same,GI50,EKVX,15.6 µM (inactive)
same,GI50,HCC 2998,13.3 µM (inactive)
same,GI50,HCT-116,13.5 µM (inactive)
same,GI50,HCT-15,15.9 µM
same,GI50,HL-60,12.9 µM (inactive)
same,GI50,HOP-62,16.9 µM (inactive)
same,GI50,HOP-92,11.8 µM (inactive)
same,GI50,HT-29,14.9 µM (inactive)
same,GI50,Hs-578T,15.6 µM (inactive)
same,GI50,IGROV-1,25.8 µM (inactive)
same,GI50,K562,14.9 µM (inactive)
same,GI50,KM12,16.3 µM (inactive)
same,GI50,LOX IMVI,18.2 µM (inactive)
same,GI50,M14,16.6 µM (inactive)
same,GI50,MCF7,16.5 µM (inactive)
same,GI50,MDA-MB-231,15.9 µM (inactive)
same,GI50,MDA-MB-435,16.7 µM (inactive)
same,GI50,MDA-N,15.5 µM (inactive)
same,GI50,MOLT-4,6 µM (inactive)
same,GI50,Malme-3M,13.4 µM (inactive)
same,GI50,NCI-H23,15.7 µM (inactive)
same,GI50,NCI-H460,15.7 µM (inactive)
same,GI50,NCI-H522,10.1 µM (inactive)
same,GI50,NCI/ADR-RES,16.6 µM (inactive)
same,GI50,OVCAR-3,15.2 µM (inactive)
same,GI50,OVCAR-5,18.2 µM (inactive)
same,GI50,OVCAR-8,18.5 µM (inactive)
same,GI50,PC-3,14.3 µM (inactive)
same,GI50,RPMI-8226,2.9 µM (inactive)
same,GI50,RXF 393,12.2 µM (inactive)
same,GI50,SF-268,16.8 µM (inactive)
same,GI50,SF-295,17.3 µM (inactive)
same,GI50,SF-539,18.6 µM (inactive)
same,GI50,SK-MEL-28,16.7 µM (inactive)
same,GI50,SK-MEL-2,14.8 µM (inactive)
same,GI50,SK-MEL-5,17 µM (inactive)
same,GI50,SK-OV-3,16.7 µM (inactive)
same,GI50,SN12C,17.6 µM (inactive)
same,GI50,SNB-19,17.2 µM (inactive)
same,GI50,SNB-75,20.5 µM (inactive)
same,GI50,SR,8.24 µM (inactive)
same,GI50,SW-620,15.5 µM (inactive)
same,GI50,T47D,14.9 µM (inactive)
same,GI50,TK-10,16.9 µM (inactive)
same,GI50,U-251,17.6 µM (inactive)
same,GI50,UACC-257,15.4 µM (inactive)
same,GI50,UACC-62,15.5 µM (inactive)
same,GI50,UO-31,17 µM (inactive)
